Reference: US20120136033A1, “Small Molecule Antagonists of Phosphatidylinositol-3,4,5-Triphosphate (PIP3) and Uses Thereof” (President and Fellows of Harvard College, priority 2009, published 2012)

How the values were obtained:
Bcl-xL = Bcl-xL (Homo sapiens, UniProt Q07817); assay: NMR HSQC specificity control, Bcl-xL; type: binding
[1] = test system: AMP-activated protein kinase (AMPK); assay: phosphorylation of AMPK and ACC (metabolic stress); type: cell-based
Text: Changes in cell metabolism have emerged in recent years as an important component of PI3K/PIP3/Akt signaling, contributing to the regulation of cell viability and transformation by the PI3K/Akt pathway. Datta S R et al. (1999) Genes Dev 13:2905-27; Elstrom R L et al. (2004) Cancer Res 64:3892-9. Therefore, the possibility that PIT-1 may cause dysregulation of energy homeostasis and induction of the metabolic stress in cancer cells, which may contribute to the PIT-induced cell death, was investigated. […] Hardie D G (2007) Nat Rev Mol Cell Biol 8:774-85. […] Mathew R et al. (2007) Nat Rev Cancer 7:961-7. […] Takeuchi H et al. (2005) Cancer Res 65:3336-46.

U87MG cells = assay: sensitization of U87MG cells to killing by TRAIL, ATP assay; type: cell-based, human; conditions: 50 μM PITs or 10 μM Akt inhibitor VIII, 10 ng/ml TRAIL, 48 hr
Protocol: FIG. 10 is a bar graph depicting that PITs, as well as Akt inhibitor VIII, sensitize U87MG cells to killing by TRAIL. U87MG cells were incubated with 50 μM PIT-1, PIT-2, PIT-1i-1 or 10 μM Akt inhibitor VIII in the presence or absence of 10 ng/ml TRAIL for 48 hr, followed by cell viability analysis using ATP assay.
Based on the critical role of PIP3-dependent Akt signaling in the regulation of cell survival, the effect of PIT-1 on the cancer cell viability was tested. Cancer cells were seeded into 96-well plates (white plates for ATP assay; black plates for fluorescent assay; clear plates for MTS assay) at the density of 5-10×10^3 cells per well in 100 μl of the appropriate media. […] For the ATP assay, a luminescence-based commercial kit (CellTiter-Glo, Promega, Madison, Wis.) was used. Thirty microliters of cell lysis/ATP detection reagent was added to each well, mixed for 10 min at room temperature, and the luminescence was measured using a Wallac Victor 3 plate reader (Perkin-Elmer, Wellesley, Mass.). […] Twenty microliters of the combined MTS/PMS solution was added into each well, incubated for 4 hr at 37° C., and the absorbance at 490 nm was measured using a Wallac Victor 3 plate reader. […] Next, 5 μl of 20% (v/v) Triton X-100 solution was added to each well and incubated for 1 hr at 37° C., and the signal was measured again. […]

eIF-1 = eIF-1 (Homo sapiens, UniProt P41567); assay: NMR HSQC specificity control, eIF-1; type: binding
eIF-1, sequence (P41567 whole entry, species assumed): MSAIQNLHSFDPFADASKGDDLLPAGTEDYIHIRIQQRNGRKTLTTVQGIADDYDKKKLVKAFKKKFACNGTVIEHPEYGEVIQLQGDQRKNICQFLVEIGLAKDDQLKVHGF

SUM-159 cells = assay: acquisition of the invasive phenotype by SUM-159 cells; type: cell-based, human; conditions: reversible
PI3K-PDK1-Akt signaling = PI3K-PDK1-Akt signaling in growth factor-stimulated SUM159 cells; type: cell-based, human
rat aortic rings = assay: rat aortic ring microvessel outgrowth assay; type: cell-based; conditions: 144 h; rat aortic rings in matrigel, 6 days, 3.125-100 μM; read-out: IC50, microvessel outgrowth in aortic ring sprouting
Protocol: For the aortic ring assay, aortas were isolated from 6-week old Sprague-Dawley rats and immediately transferred to a culture dish with serum-free medium. The fibroadipose tissue around the aortas was carefully removed and the aortas were cut into 1-mm long aortic ring fragments. After three consecutive washes in serum-free medium, the aortic rings were embedded into 70 μl Matrigel in 96-well plate and fed with 100 μl of serum-free M199 medium with or without PIT-1 at different concentrations (3.125-100 μM). The medium was replaced every 24 hr. Phase-contrast images were obtained on day 6, and the numbers of microvessel outgrowths per ring were counted.
Microvessel growth from rat aorta sections is the result of a combination of endothelial cell proliferation, migration, and tube formation, and thus provides a close approximation of in vivo angiogenesis. For this experiment the rat aortic rings were embedded in matrigel and then were treated with PIT-1 (3.125-100 μM) for 6 days, followed by counting the number of microvessel outgrowths under microscope.

caspase-3 = assay: Western blot of caspase-3 cleavage and PARP processing; type: cell-based
Text: Since PI3K/PIP3/Akt signaling plays a critical role in the inhibition of apoptosis (Datta S R et al. (1999) Genes Dev 13:2905-27), the possibility that PITs induce apoptosis was examined. […] Proapoptotic Bcl-2 family members Bax and Bak are important mediators of apoptosis. Wei M C et al. (2001) Science 292:727-30. […] Non-apoptotic mechanisms of cell death may also play some additional, albeit less important, role in PIT-induced killing, as some cell death was still observed in Bax/Bak-deficient cells and in the presence of zVAD.fmk.

[2] = test system: differentiated HL-60 cells; assay: fMLP-stimulated HL-60 cell polarization; type: cell-based; conditions: 100 μM, 2 hr
Protocol: In another set of experiments, the ability of PITs to inhibit fMLP-stimulated HL-60 cell polarization was examined. Differentiated HL-60 cells were treated with PIT-1, PIT-2, PIT-1i-1, or PIT-1i-2, each at 100 μM for 2 hr, followed by stimulation with 100 nM fMLP for 3 min. Actin was stained and analyzed using fluorescent microscopy. The number of the polarized cells was counted in five random fields.

[3] = target: T1, R86A mutant of the Akt PH domain (Homo sapiens, UniProt P31749, R86A); assay: NMR HSQC, R86A mutant of the PH domain; type: binding
T1 construct: Human Akt PH domain a.a; 1-123; His6 (N); made in house; host or cells: E. coli BL21(DE3)
T1 sequence (P31749 1-123 R86A): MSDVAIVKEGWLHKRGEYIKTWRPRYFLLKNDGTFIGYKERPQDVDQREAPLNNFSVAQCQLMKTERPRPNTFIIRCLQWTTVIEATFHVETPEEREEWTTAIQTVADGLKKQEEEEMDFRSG

Bcl-xL, sequence (Q07817 whole entry, species assumed): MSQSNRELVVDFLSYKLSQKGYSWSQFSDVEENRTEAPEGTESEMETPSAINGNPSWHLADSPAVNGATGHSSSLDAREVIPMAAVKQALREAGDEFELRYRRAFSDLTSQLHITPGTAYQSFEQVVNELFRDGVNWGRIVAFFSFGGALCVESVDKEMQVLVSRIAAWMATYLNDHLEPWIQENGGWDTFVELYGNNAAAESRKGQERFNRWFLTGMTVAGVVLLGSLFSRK

With `O=C(NC(=S)Nc1cc([N+](=O)[O-])cc(Cl)c1O)c1ccccc1` [PIT-1] the “changes in HSQC spectrum of Bcl-xL” value (Bcl-xL) was “did not elicit any changes”, the “phosphorylation of AMPK” value [1] was “significant increase in the phosphorylation” and the “phosphorylation of acetyl-CoA carboxylase (ACC)” value [1] was “Increased phosphorylation”. For the same molecule, the “sensitization of U87MG cells to killing by TRAIL” value (U87MG cells) was “substantially sensitized”, the “changes in HSQC spectrum of eIF-1” value (eIF-1) was “did not elicit any changes” and the “acquisition of the invasive phenotype by SUM-159 cells” value (SUM-159 cells) was “blocked acquisition of the invasive phenotype”. For the same molecule, the “PI3K-PDK1-Akt signaling in SUM159 cells” value (PI3K-PDK1-Akt signaling) was “significantly suppressed”, the IC50 (rat aortic rings) was 4.58 µM and the “cleavage/activation of caspase-3 and processing of PARP” value (caspase-3) was “induced the cleavage/activation”. For the same molecule, the “fMLP-stimulated polarization of differentiated HL-60 neutrophils” value [2] was “efficient inhibition” and the “effect on HSQC of R86A mutant PH domain” value [3] was “had no effect”.
